Laboratory results published in EP4178959B1, “NITROGEN HETEROCYCLIC CYTOKININ DERIVATIVES, COMPOSITIONS CONTAINING THESE DERIVATIVES AND USE THEREOF” (Univerzita Palackého v Olomouci, priority 2020, dated 2022).

Columns and labels:
Arabidopsis thaliana [1] = experiment: Effect on the root proliferation of Arabidopsis thaliana; type: in vivo, Arabidopsis thaliana (ecotype Columbia); details: for Concentration with highest activity: number of lateral roots; for Activity (%) [10^-8 mol.l^-1 Kin = 100%]: number of lateral roots (% of control), at concentration with highest activity
Description: Arabidopsis thaliana seeds (ecotype Columbia) were sterilized with 70% ethanol and 0.1% Triton X-100 and then washed with 70% ethanol containing 0.01% Triton X-100. Then the seeds were transferred to vertical square petri dishes (11 seeds per dish) on a solid medium consisting of MS (2.15 g/l), MES (0.5 g/l), sucrose (1 g/l), agar (11 g/l), buffered to pH 5.8, and various concentrations of tested compounds. The compounds were dissolved in DMSO, thus 0.05% DMSO was used as a control solution. After incubation for 3 days in darkness at 4°C, the seeds were germinated and grown in an environmental chamber (fluorescence light intensity 150 µE m^-2 s^-1, humidity 55%, 16 h day/8 h night, 22°C). […] The number of lateral roots was scored under a stereomicroscope. […] In addition, compounds with tetrahydropyranyl protection at N9 slightly increase the number of emerged lateral roots (Fig 3C). […] Table 6: […]

excised wheat leaf tips = experiment: Senescence inhibition on winter wheat leaf segments (chlorophyll retention); parameters: species or system Triticum aestivum cv. Hereward; details: for Concentration with highest activity: retention of chlorophyll; for Activity (%) [10^-4mol.l^-1 KTHP = 100%] / Emax: retention of chlorophyll in excised wheat leaf tips, 96 h in the dark, at concentration with highest activity; for Emax: Triticum aestivum, foliar, read-out: Activity (%) [10^-4mol.l^-1 KTHP = 100%]
Description: Seeds of winter wheat, Triticum aestivum cv. Hereward, were washed under running water for 24 hours and then sown on vermiculite soaked with the Knop's solution. They were placed in the grow chamber at 25 °C with a 16/8 h light period at 50 μmol.m^-2.s^-1. After 7 days, the first leaf was fully developed and the second leaf had started to grow. A tip section of the first leaf, approximately 35 mm long, was removed from 5 seedlings and trimmed slightly to a combined weight of 100 mg. The basal ends of the five leaf tips were placed in the wells of a microtiter polystyrene plate containing 150 μl of the solution of the tested compound each. The entire plate was inserted into a plastic box lined with paper tissues soaked with distilled water to prevent leaf sections from drying out. […] The absorbance of the extract was recorded at 665 nm. In addition, chlorophyll extracts from fresh leaves and leaf tips incubated in deionised water were measured. From the obtained data, the concetration with the highest activity was selected for each compound tested. Relative activity of the compound at this concentration was calculated (Table 7). […] The values shown are means of five replicates and the whole experiment was repeated twice. The compounds to be tested were dissolved in dimethylsulfoxide (DMSO) and the solution brought up to 10^-3 M with distilled water. […] The compounds listed in Table 7 can be divided into 2 groups. The first group contains "classical 6,9-disubstituted purines (KTHP as a control)" known in prior art. […] Table 9: […]

Mouse fibroblasts NIH3T3 = experiment: Calcein AM cytotoxicity assay, NIH3T3 cells; details: read-out: Cytotoxicity IC50, NIH-3T3; Calcein AM, 72 hours
Description: (§1) All compound concentrations were examined in duplicates. […] Zero cytotoxicity is a basic prerequisite for the use of these substances in cosmetical applications. To assess the antitumor activity, the toxicity of new derivatives on panels containing cell lines of different histogenic and species origin was tested (Table 5). […] The compounds listed in Table 5 can be divided into 2 groups.
(§2) The first group contains "classical cytokinins" represented by 6-substituted purines (their effects are already known). The second group includes novel 2-fluoro-N6-substituted-9-(2-oxacycloalkyl)-9H-purine-6-amine derivatives. […] Low cytotoxicity (high IC50 value) of the compounds is the basic prerequisite for cosmetic and medical applications. […] Table 5: Cytotoxicity of novel compounds for different normal cell lines tested / IC50 (µmol/L)

Zea mays seedlings = experiment: Effect on development of Zea mays seedlings (hydroponic); type: in vivo, Zea mays cv. CELLUX; details: for Root dry mass (%) [4 x 10^-8 mol.l^-1 Kin = 100%] / Shoot dry mass (%) [10^-6 mol.l^-1 Kin = 100%]: at concentration with highest activity
Description: Maize seeds (Zea mays cv. CELLUX) were imbibed in tap water and germinated on a wetted filter paper. After 3 days, the germinated seedlings were transferred to aerated hydroponic tanks filled with Hoagland's nutrient solution. The plants were grown in an environmental chamber with 16 h light period (250 μE m^-2 s^-1) at 27°C and 8 h dark period at 20°C. Tested compounds diluted in DMSO were added to nutrient solution immediately when seedlings were nested in the tanks or after two additional days of cultivation. Control plants were grown in parallel with addition of corresponding amount of DMSO (up to 0.01%). Root and leaf tissues of ten plants were harvested at different time points after the application of the compounds, immediately frozen in liquid nitrogen and used for cytokinin content and transcript level analysis. Length of primary root and the first leaf were determined with ruler on sets of twelve plants, each cultivated in the independent tank (for every cytokinin application repeated ten times). Dry mass of root system and the aerial part was determined after cutting off the kernel and desiccation in dryer for two days at 60°C. […] Fig. 4) and up to 1 micromolar concentration when more seedlings were in the solution (approx. 50 seedlings per 1 liter; Fig. 5). […] Table 7: […]

[2] = tested on: BJ (human foreskin fibroblasts); experiment: Calcein AM cytotoxicity assay, BJ cells; details: read-out: Cytotoxicity IC50, BJ; Calcein AM, 72 hours
Description: as §1, §2

[3] = tested on: mouse immortalized bone marrow macrophages B10A.4; experiment: Calcein AM cytotoxicity assay, B10A.4 cells; details: read-out: Cytotoxicity IC50, B10A.4, first column headed B10A.4, 72 hours
Description: as §1, §2

[4] = Calcein AM cytotoxicity assay, NIH3T3 cells; details: mouse; for CC50 at 72 h: nih3t3 cells
Description: as §1, §2

[5] = Calcein AM cytotoxicity assay, BJ cells; details: human; for CC50 at 72 h: bj fibroblasts
Description: as §1, §2

[6] = Calcein AM cytotoxicity assay, B10A.4 cells; details: mouse; for CC50 at 72 h: b10a.4 macrophages
Description: as §1, §2

Arabidopsis thaliana [7] = experiment: Arabidopsis root growth inhibition test; type: in vivo, Arabidopsis thaliana (ecotype Columbia); details: for Primary root length 7-d, WT = 100%: 7-d-old plants
Description: Arabidopsis thaliana seeds (ecotype Columbia) were sterilized with 70% ethanol and 0.1% Triton X-100 and then washed 4 times with sterile water. The seeds were transferred to Petri dishes on a solid medium consisting of MS (2.2 g l^-1), sucrose (10 g l^-1), agar (8 g l^-1), and supplemented with cytokinins or DMSO control (0.1% DMSO). After incubation for 3 days in darkness at 4°C, the seeds were germinated and grown horizontally in an environmental chamber at 22/20 °C under an 8 h light (120 µmol photons m^-2 s^-1)/16 h dark cycle for 4 days. 7-d-old seedling were used for measurements of the primary root length. At least 35 plants were used for each treatment and each treatment was repeated in at least 5 individual Petri dishes. The length of the primary root was evaluated using Scion Image software (Scion Corporation, Frederick, MD, USA). All measured parameters were statistically evaluated between untreated and treated plants according to Student's unpaired t-test. […] Tab. Inhibition of the primary root growth in 7-d-old Arabidopsis plants. 100% = WT plants, DMSO treated.

[8] = Cytotoxicity IC50, B10A.4, first column headed B10A.4
[9] = tested concentration 0.04 µmol.l^-1
[10] = tested concentration 1 µmol.l^-1
[11] = tested concentration 25 µmol.l^-1

C/C(=C\CO)CNc1nc(F)nc2c1ncn2C1CCCO1 (stereo not shown) [Compound 6]
Concentration with highest activity (Arabidopsis thaliana [1]): 10^-5 mol.l^-1
Activity (%) [10^-8 mol.l^-1 Kin = 100%] (Arabidopsis thaliana [1]): 48.5 (± 6) %
Concentration with highest activity (excised wheat leaf tips): 10^-4 mol.l^-1
Activity (%) [10^-4mol.l^-1 KTHP = 100%] (excised wheat leaf tips): 138.2 (± 17) %
CC50 (Mouse fibroblasts NIH3T3): > 167 µM
Root dry mass (%) [4 x 10^-8 mol.l^-1 Kin = 100%] (Zea mays seedlings): 167.2 (± 14) %
Shoot dry mass (%) [10^-6 mol.l^-1 Kin = 100%] (Zea mays seedlings): 121.2 (± 6) %
Concentration with highest activity (Zea mays seedlings; root dry mass): 10^-7 mol.1^-1
Concentration with highest activity (Zea mays seedlings; shoot dry mass): 10^-6 mol.1^-1
CC50 [2]: > 167 µM
CC50 [3]: > 167 µM

Oc1cccc(CNc2nc(F)nc3c2ncn3C2CCCO2)c1O (stereo not shown) [Compound 29]
Concentration with highest activity (excised wheat leaf tips): 10^-4 mol.l^-1
Activity (%) [10^-4mol.l^-1 KTHP = 100%] (excised wheat leaf tips): 15 (±5) %
CC50 (Mouse fibroblasts NIH3T3): > 167 µM
CC50 [2]: > 167 µM
CC50 [3]: > 167 µM

Fc1nc(NCc2ccco2)c2ncn(C3CCCCO3)c2n1 (stereo not shown) [Compound 57, 2-Fluoro-6-furfurylamino-9-(tetrahydro-2H-pyran-2-yl)-9H-purine]
Concentration with highest activity (Arabidopsis thaliana [1]): 10^-6 mol.l^-1
Activity (%) [10^-8 mol.l^-1 Kin = 100%] (Arabidopsis thaliana [1]): 68.4 (± 8) %
Emax (excised wheat leaf tips): 111%
IC50 at 72 h [4]: 138 µM
Root dry mass (%) [4 x 10^-8 mol.l^-1 Kin = 100%] (Zea mays seedlings): 183.9 (± 24) %
Shoot dry mass (%) [10^-6 mol.l^-1 Kin = 100%] (Zea mays seedlings): 112.8 (± 11) %
Concentration with highest activity (Zea mays seedlings; root dry mass): 10^-7 mol.1^-1
Concentration with highest activity (Zea mays seedlings; shoot dry mass): 10^-6 mol.1^-1
IC50 at 72 h [5]: 132 µM
IC50 at 72 h [6, 8]: 149 µM

Fc1nc(NCc2ccccc2)c2ncn(C3CCCCO3)c2n1 (stereo not shown) [Compound 64, 2-Fluoro-6-benzylamino-9-(tetrahydro-2H-pyran-2-yl)-9H-purine]
Concentration with highest activity (Arabidopsis thaliana [1]): 10^-6 mol.l^-1
Activity (%) [10^-8 mol.l^-1 Kin = 100%] (Arabidopsis thaliana [1]): 61.2 (± 3) %
Emax (excised wheat leaf tips): 110%
IC50 at 72 h [4]: 128 µM
Root dry mass (%) [4 x 10^-8 mol.l^-1 Kin = 100%] (Zea mays seedlings): 168.9 (± 16) %
Shoot dry mass (%) [10^-6 mol.l^-1 Kin = 100%] (Zea mays seedlings): 108.9 (± 8) %
Concentration with highest activity (Zea mays seedlings; root dry mass): 10^-7 mol.1^-1
Concentration with highest activity (Zea mays seedlings; shoot dry mass): 10^-6 mol.1^-1
IC50 at 72 h [5]: 124 µM
IC50 at 72 h [6, 8]: 121 µM

Oc1cccc(CNc2nc(F)nc3c2ncn3C2CCCCO2)c1 (stereo not shown) [Compound 65, 2-Fluoro-6-[(3-hydroxybenzyl)amino]-9-(tetrahydro-2H-pyran-2-yl)-9H-purine]
Concentration with highest activity (Arabidopsis thaliana [1]): 10^-5 mol.l^-1
Activity (%) [10^-8 mol.l^-1 Kin = 100%] (Arabidopsis thaliana [1]): 32.6 (± 6) %
Emax (excised wheat leaf tips): 128%
IC50 at 72 h [4]: > 167 µM
Root dry mass (%) [4 x 10^-8 mol.l^-1 Kin = 100%] (Zea mays seedlings): 187.3 (± 18) %
Shoot dry mass (%) [10^-6 mol.l^-1 Kin = 100%] (Zea mays seedlings): 121.6 (± 7) %
Concentration with highest activity (Zea mays seedlings; root dry mass): 10^-7 mol.1^-1
Concentration with highest activity (Zea mays seedlings; shoot dry mass): 10^-6 mol.1^-1
root growth inhibition (in words) (Arabidopsis thaliana [7]; compared to WT, 7-d-old seedlings): did not caused the inhibition of root
Primary root length 7-d, WT = 100% (Arabidopsis thaliana [7]; [9]): 102.9 (±11.0) %
Primary root length 7-d, WT = 100% (Arabidopsis thaliana [7]; [10]): 40.6 (±2.1) %
Primary root length 7-d, WT = 100% (Arabidopsis thaliana [7]; [11]): 31.3 (±1.8) %
IC50 at 72 h [5]: > 167 µM
IC50 at 72 h [6, 8]: > 167 µM

C/C(=C/CNc1nc(F)nc2c1ncn2C1CCCCO1)CO (stereo not shown) [Compound 71]
Concentration with highest activity (Arabidopsis thaliana [1]): 10^-6 mol.l^-1
Activity (%) [10^-8 mol.l^-1 Kin = 100%] (Arabidopsis thaliana [1]): 71.8 (± 7) %
Concentration with highest activity (excised wheat leaf tips): 10^-4 mol.l^-1
Activity (%) [10^-4mol.l^-1 KTHP = 100%] (excised wheat leaf tips): 113 (± 18) %
CC50 at 72 h [4]: > 167 µM
Root dry mass (%) [4 x 10^-8 mol.l^-1 Kin = 100%] (Zea mays seedlings): 172.5 (± 14) %
Shoot dry mass (%) [10^-6 mol.l^-1 Kin = 100%] (Zea mays seedlings): 111.1 (± 6) %
Concentration with highest activity (Zea mays seedlings; root dry mass): 10^-7 mol.1^-1
Concentration with highest activity (Zea mays seedlings; shoot dry mass): 10^-6 mol.1^-1
CC50 at 72 h [5]: > 167 µM
CC50 at 72 h [6, 8]: > 167 µM

CC(CO)CCNc1nc(F)nc2c1ncn2C1CCCCO1 (stereo not shown) [Compound 72]
Concentration with highest activity (Arabidopsis thaliana [1]): 10^-6 mol.l^-1
Activity (%) [10^-8 mol.l^-1 Kin = 100%] (Arabidopsis thaliana [1]): 68.5 (± 2) %
Concentration with highest activity (excised wheat leaf tips): 10^-4 mol.l^-1
Activity (%) [10^-4mol.l^-1 KTHP = 100%] (excised wheat leaf tips): 103 (± 7) %
CC50 at 72 h [4]: > 167 µM
Root dry mass (%) [4 x 10^-8 mol.l^-1 Kin = 100%] (Zea mays seedlings): 161.3 (± 21) %
Shoot dry mass (%) [10^-6 mol.l^-1 Kin = 100%] (Zea mays seedlings): 104.8 (± 7) %
Concentration with highest activity (Zea mays seedlings; root dry mass): 10^-7 mol.1^-1
Concentration with highest activity (Zea mays seedlings; shoot dry mass): 10^-6 mol.1^-1
CC50 at 72 h [5]: > 167 µM
CC50 at 72 h [6, 8]: > 167 µM

Oc1cccc(CNc2ncnc3[nH]cnc23)c1 [meta-topolin, reference compound]
CC50 at 72 h [4]: 167 µM
Primary root length 7-d, WT = 100% (Arabidopsis thaliana [7]; [9]): 67.1 (±7.2) %
Primary root length 7-d, WT = 100% (Arabidopsis thaliana [7]; [10]): 33.9 (±2.0) %
Primary root length 7-d, WT = 100% (Arabidopsis thaliana [7]; [11]): 19.3 (±2.3) %
CC50 at 72 h [5]: 166 µM
CC50 at 72 h [6, 8]: > 167 µM
CC50 at 72 h ([6]; Cytotoxicity IC50, B10A.4, second column headed B10A.4): 178 µM
